Measurements taken from patent US7396851B2, “Heterocyclic and benzoheterocyclic polyamides structurally related to the natural antibiotic distamycin A for the treatment of β-thalassaemia” (priority 2001, dated 2008).
Structures can show the parent of a compound that is named as a salt.

Tests used:
human cell line K562 = assay: Erythroid differentiation of K562 cells (benzidine-positive cells); type: cell-based; settings: mean±SD of five independent experiments
Method: The activity of the distamycin analogues described previously as inducers of erythroid cell differentiation was evaluated by studying the erythroid differentiation induced in human cell cultures.
The biological activity was evaluated by examining the capacity of those compounds to induce erythroid differentiation in the human cell line K562, which is capable of undergoing erythroid differentiation by expressing the genes for γ-globin if subjected to treatment with modifiers of the biological response that are suitable for the purpose (19-24). The level of differentiation was evaluated by analysing the positive reaction of the cells to benzidine (23). Some of the data obtained are given in Table 1, which represents the results of five independent experiments (mean±SD).

mRNA for γ-globin = assay: Expression of genes coding for γ-globins by RT-PCR / Northern blotting in K562 cells; type: cell-based, human; settings: concentration 50 nM, quantitative RT-PCR, untreated control = 1
Method: The expression of genes coding for γ-globins was evaluated by RT-PCR (reverse transcriptase PCR) and Northern blotting (25). […] The evaluations were carried out after 6 days' induction with the indicated molecules.
The Technique used is that of quantitative RT-PCR (28, 29) using the following oligonucleotide primers and probe: γ-globin forward primer, 5′-TGGCAAGAAGGTGCTGACTTC-3′; γ-globin reverse primer, 5′-TCA CTC AGC TGG GCA AAG G-3′; probe γ-globin, 5′-FAM-TGGGAGATGCCATAAAGCACCTGG-TAMRA-3′(FAM=6-carboxy fluorescein, TAMRA=6-carboxy-N,N,N′,N′-tetramethylrhodamine).

SMILES	erythroid differentiation (%) = percentage of K562 cells that react positively to benzidine (human cell line K562; concentration 50 nM) [%]	further results
Cn1cc(NC(=O)c2cc(NC(=O)c3cc(N(CC4CO4)CC4CO4)cn3C)cn2C)cc1C(=O)NCC/C(N)=N/C#N (stereo not drawn) [Compound 5, 3-(1-methyl-4-(1-methyl-4-(1-methyl-4-(N,N-bis(2-oxiranylmethyl)amino)pyrrole-2-carboxamido)pyrrole-2-carboxamido)pyrrole-2-carboxamido)cyanopropionamidine hydrochloride]	77 ± 10.1	–
CN(C)CCCNC(=O)c1cc2cc(NC(=O)c3cc4cc(NC(=O)c5ccc(N(CCCl)CCCl)cc5)ccc4[nH]3)ccc2o1 [Compound 4, N-(3′-dimethylaminopropyl)-5-(5-(4-(bis(2-chloroethyl)amino)benzoylamino)-1H-indol-2-carboxamido)benzofurane-2-carboxamido hydrochloride]	–	erythroid differentiation (%) = percentage of K562 cells that react positively to benzidine (human cell line K562; concentration 500 nM): 30 ± 3.8%
Cl.Cn1cc(NC(=O)c2cc(NC(=O)c3nc(NC(=O)c4ccc(N(CCCl)CCCl)cc4)cn3C)cn2C)cc1C(=O)NCCC(=N)N [Compound 2, 3-(1-methyl-4-(1-methyl-4-(1-methyl-4-(4-(N,N-bis(2-chloroethyl)amino)benzenecarboxamido)imidazole-2-carboxamido)pyrrole-2-carboxamido)pyrrole-2-carboxamido)propionamidine hydrochloride]	85.2 ± 12.8	–
Cl.Cn1cc(NC(=O)c2cc(NC(=O)c3cc(NC(=O)c4ccc(N(CCCl)CCCl)cc4)cn3C)cn2C)cc1C(=O)NCCC(=N)N [Compound 1, 3-(1-methyl-4-(1-methyl-4-(1-methyl-4-(4-(N,N-bis(2-chloroethyl)amino)benzenecarboxamido)pyrrole-2-carboxamido)pyrrole-2-carboxamido)pyrrole-2-carboxamido)propionamidine hydrochloride]	65.5 ± 8.8	mRNA for γ-globin, increase compared with untreated control K562 cells (mRNA for γ-globin): 11.5 ± 2.5
Cn1cc(NC(=O)c2cc(NC(=O)c3cc(NC(=O)c4cc5cc(N(CCCl)CCCl)ccc5o4)cn3C)cn2C)cc1C(=O)NCCC(=N)N [Compound 3, 3-(1-methyl-4-(1-methyl-4-(1-methyl-4-(5-N,N-bis(2-chloroethyl)aminobenzofurane-2-carboxamido)pyrrole-2-carboxamido)pyrrole-2-carboxamido)pyrrole-2-carboxamido)propionamidine hydrochloride]	–	erythroid differentiation (%) = percentage of K562 cells that react positively to benzidine (human cell line K562; concentration 100 nM): 72.4 ± 10.2%
